According to paper doi:10.1101/2025.08.06.668955, “High-Affinity, Structure-Validated and Selective Macrocyclic Peptide Tools for Chemical Biology Studies of Huntingtin” (bioRxiv, 2025):
Where a SMILES comes first, the peptide text is derived from it. Bridges are numbered along the chain shown (N, C = ends).

What was measured:
HTTQ23-HAP40 = target: T1, HTTQ23-HAP40 (Homo sapiens, UniProt P23610+P42858, INS38QQ); assay: Differential hydrogen-deuterium exchange mass spectrometry (ΔHDX-MS); assay type: binding; conditions: 15 μM protein, 1:4 macrocycle, labeling 0.5, 5, 30 mins at 20 °C
T1 construct: Full-length wildtype HTT with a polyQ tract of 23 glutamines; FLAG; made in house; host or cells: Sf9 insect cells (baculovirus)
T1 sequence (P42858 with tags, fused parts or gaps INS38QQ): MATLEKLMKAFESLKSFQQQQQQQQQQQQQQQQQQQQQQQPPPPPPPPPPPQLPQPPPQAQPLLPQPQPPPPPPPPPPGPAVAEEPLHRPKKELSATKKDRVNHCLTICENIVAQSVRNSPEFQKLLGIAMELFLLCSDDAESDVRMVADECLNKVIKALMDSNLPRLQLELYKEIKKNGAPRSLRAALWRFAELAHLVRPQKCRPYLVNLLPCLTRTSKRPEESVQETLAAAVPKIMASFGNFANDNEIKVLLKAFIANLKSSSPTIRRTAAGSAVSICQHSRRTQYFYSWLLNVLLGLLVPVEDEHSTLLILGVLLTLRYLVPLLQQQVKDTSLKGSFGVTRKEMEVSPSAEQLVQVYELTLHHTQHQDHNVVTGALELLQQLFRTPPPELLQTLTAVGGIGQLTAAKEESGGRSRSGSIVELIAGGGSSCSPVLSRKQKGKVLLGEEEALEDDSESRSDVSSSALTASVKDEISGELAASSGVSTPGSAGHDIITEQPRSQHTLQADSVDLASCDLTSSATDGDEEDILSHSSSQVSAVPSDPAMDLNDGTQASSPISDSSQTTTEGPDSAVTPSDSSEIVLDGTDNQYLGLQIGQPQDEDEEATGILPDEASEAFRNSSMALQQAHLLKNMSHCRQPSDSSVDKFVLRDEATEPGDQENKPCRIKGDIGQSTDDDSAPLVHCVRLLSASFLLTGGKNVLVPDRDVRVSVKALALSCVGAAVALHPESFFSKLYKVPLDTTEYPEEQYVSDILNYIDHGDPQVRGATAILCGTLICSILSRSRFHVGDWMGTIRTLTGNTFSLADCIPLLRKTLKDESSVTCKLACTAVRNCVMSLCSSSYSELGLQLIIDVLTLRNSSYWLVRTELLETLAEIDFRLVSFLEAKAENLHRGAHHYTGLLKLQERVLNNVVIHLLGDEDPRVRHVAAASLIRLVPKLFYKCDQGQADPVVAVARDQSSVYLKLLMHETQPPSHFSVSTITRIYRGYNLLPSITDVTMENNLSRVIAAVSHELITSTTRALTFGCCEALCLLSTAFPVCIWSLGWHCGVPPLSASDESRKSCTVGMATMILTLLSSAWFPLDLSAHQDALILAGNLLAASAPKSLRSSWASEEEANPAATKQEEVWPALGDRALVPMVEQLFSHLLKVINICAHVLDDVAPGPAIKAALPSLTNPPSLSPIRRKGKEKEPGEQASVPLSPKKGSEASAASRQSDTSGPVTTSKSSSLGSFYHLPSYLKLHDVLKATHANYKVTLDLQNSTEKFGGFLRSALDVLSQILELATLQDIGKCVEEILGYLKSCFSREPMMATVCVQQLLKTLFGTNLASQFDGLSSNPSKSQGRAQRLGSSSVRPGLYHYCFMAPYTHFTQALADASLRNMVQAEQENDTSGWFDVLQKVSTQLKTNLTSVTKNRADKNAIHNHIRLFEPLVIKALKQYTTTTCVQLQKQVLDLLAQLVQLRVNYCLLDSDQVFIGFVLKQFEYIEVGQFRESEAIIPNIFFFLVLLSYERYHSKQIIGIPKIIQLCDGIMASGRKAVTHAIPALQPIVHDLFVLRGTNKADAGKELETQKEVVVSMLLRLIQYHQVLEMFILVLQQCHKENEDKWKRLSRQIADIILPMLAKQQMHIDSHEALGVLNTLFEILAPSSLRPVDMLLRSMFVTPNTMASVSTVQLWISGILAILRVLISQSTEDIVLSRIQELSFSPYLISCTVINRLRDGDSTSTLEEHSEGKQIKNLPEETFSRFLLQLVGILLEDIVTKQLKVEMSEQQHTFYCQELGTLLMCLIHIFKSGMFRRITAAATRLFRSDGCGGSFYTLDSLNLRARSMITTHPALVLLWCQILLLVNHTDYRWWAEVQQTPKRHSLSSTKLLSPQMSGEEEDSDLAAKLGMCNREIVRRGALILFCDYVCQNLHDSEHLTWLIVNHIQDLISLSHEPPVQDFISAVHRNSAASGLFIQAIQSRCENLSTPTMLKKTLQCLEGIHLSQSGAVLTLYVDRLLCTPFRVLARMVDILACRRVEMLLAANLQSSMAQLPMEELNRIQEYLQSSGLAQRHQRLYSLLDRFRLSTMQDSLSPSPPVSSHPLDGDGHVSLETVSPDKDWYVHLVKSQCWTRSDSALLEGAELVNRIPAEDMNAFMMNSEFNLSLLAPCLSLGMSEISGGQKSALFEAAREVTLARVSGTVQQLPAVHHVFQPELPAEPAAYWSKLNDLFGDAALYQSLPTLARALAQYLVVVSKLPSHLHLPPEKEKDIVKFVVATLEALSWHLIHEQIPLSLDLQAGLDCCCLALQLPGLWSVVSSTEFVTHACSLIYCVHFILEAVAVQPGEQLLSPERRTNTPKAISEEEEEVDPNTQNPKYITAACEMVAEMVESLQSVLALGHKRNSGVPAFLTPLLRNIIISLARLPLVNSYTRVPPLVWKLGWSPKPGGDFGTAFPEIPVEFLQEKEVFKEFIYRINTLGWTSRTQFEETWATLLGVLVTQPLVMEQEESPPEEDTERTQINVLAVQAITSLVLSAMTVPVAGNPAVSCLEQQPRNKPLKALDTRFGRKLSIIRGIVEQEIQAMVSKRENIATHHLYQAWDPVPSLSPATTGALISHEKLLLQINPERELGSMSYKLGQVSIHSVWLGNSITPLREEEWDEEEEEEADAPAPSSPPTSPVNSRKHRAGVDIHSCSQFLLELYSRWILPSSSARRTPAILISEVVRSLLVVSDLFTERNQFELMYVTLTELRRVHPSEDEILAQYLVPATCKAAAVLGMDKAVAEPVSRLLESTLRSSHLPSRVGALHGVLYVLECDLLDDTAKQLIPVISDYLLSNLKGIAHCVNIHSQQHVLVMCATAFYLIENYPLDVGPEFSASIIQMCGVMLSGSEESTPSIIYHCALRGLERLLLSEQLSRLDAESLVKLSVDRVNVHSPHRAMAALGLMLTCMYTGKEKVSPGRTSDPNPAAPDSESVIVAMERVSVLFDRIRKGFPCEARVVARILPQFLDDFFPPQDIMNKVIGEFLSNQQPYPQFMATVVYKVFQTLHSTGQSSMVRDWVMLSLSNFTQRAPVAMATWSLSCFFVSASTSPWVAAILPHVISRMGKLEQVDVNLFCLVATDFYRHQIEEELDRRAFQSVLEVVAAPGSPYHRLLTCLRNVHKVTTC
T1 sequence (P23610 whole entry, stated change not applied): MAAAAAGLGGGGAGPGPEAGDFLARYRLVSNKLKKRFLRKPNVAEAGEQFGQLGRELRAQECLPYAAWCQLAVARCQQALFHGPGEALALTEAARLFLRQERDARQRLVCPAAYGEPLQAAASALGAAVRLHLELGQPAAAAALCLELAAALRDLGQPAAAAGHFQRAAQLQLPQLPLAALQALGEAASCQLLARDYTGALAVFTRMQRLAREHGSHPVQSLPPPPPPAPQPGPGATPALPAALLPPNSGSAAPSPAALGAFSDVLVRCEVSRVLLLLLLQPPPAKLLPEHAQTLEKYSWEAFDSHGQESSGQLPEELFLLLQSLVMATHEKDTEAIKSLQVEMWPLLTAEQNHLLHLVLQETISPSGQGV
Description: Samples were labeled at 3 timepoints (0.5, 5, 30 mins) with 87% (v/v) deuteration buffer (10 mM Phosphate Buffer pD 7.5, 150 mM NaCl) at 20 °C. The HDX reaction was quenched at 50% (v/v) with 7.5 M Guanidine-HCl, 0.5 M TCEP, 100 mM Phosphate Buffer pH 2.5 at 0 °C for 2 min and subsequently diluted with an equal volume of quench dilution buffer (100 mM Phosphate Buffer, pH 2.5). The protein was digested using 1:1 Nepenthesin(II)-Pepsin (Affipro) followed by desalting (ACQUITY UPLC BEH C18 VanGuard Pre-column, Waters) and reverse-phase separation (ACQUITY UPLC BEH C18 Column, Waters). Liquid handling was achieved using the ACQUITY UPLC M-Class System with HDX Technology (Waters) and PAL3 Robotic Tool Change (LEAP, Trajan Scientific and Medical). The peptides were then analyzed using the Select Series Cyclic IMS mass spectrometer (Q-IMS-TOF, Waters). Peptide identification and HDX data analysis were achieved using ProteinLynx Global Server 3.0.3 (Waters) and DynamX 3.0 (Waters), respectively. Microsoft Excel and PyMOL 2.5 were used for visual presentation of HDX data. An AlphaFold 3 model was used to incorporate missing loops for depicting HTTQ23 and HTTQ23-HAP40. The peptide sequence coverage for HTT and HAP40 was 56.6–76.8% and 77.4–82%, respectively (Supplementary Figure 3–5). […]

HAP40 = assay: Macrocycle precipitation (MP), co-purification of HAP40, LC-MS/MS; assay type: binding, human; conditions: HEK293T lysate versus HTT CRISPR knockout line
Text: To assess macrocycle selectivity and identify potential HTT interacting proteins, we performed LC-MS/MS analysis of the proteins in the MP eluates. To control for non-specific binding, we performed MPs using lysates from a HTT CRISPR knockout cell line ([Jung et al., 2021]). Across all macrocycles, HTT emerged as the most enriched protein after background subtraction (Figure 5b). Given we performed affinity purification using macrocycles targeting distinct HTT surfaces, we hypothesized that any real HTT protein binder might be co-purified with two or more macrocycles. […] In contrast, HAP40 was not enriched by HL5, consistent with its specificity for apo HTT.
Macrocycles were pre-conjugated to streptavidin beads (Cytiva, 17-5113-01) by incubating with a 30 μL slurry of beads per macrocycle purification (MP) in Lysis Buffer (10 mM Tris-HCl, pH 7.9, 150 mM NaCl, 0.1% NP-40, 1:500 protease inhibitor cocktail (Sigma-Aldrich), 1:1,000 benzonase nuclease, and 2 mM MgCl2) for 1 hour at 4°C. A concentration of 1.25 μM macrocycle was used for conjugation. After incubation, beads were washed three times with 500 μL Lysis Buffer to remove unbound macrocycles and resuspended in 500 μL of lysate at 4 mg/mL protein concentration.
Cells were harvested by centrifugation at 1,500 rpm for 5 minutes, washed twice with PBS, and snap-frozen. Cell pellets were then resuspended in 500 μL of Lysis Buffer (as described above) and incubated on an end-over-end rotator at 4°C for 1 hour. Lysates were clarified by centrifugation at 20,000g for 15 minutes at 4°C, and the supernatant was transferred to fresh 1.5 mL Eppendorf tubes. Protein concentration was determined by BCA assay (Thermo Fisher Scientific, 23225), yielding approximately 4 mg of protein on average. Lysates were diluted to a final concentration of 4 mg/mL for use, providing […] of total protein per MP.
Macrocycle-conjugated beads were incubated with 2 mg of lysate in Lysis Buffer for 1 hour at 4°C with rotation. After incubation, beads were collected by centrifugation at 3,000 rpm, and the flow-through was saved for analysis. Beads were then washed sequentially with 1 mL of Wash Buffer 1 (10 mM Tris-HCl, pH 7.9, 100 mM NaCl, 0.1% NP-40) and twice with Wash Buffer 2 (Wash Buffer 1 without detergent). Lastly, bound proteins were eluted from the beads with 200 μL of 0.5 M NH4OH and flash-frozen in liquid nitrogen.
All sample preparation, LC MS/MS data collection, and MS data searches were carried out at the SPARC BioCentre at The Hospital for Sick Children (Toronto, ON, Canada). […] Samples were analyzed by liquid chromatography tandem mass spectrometry (LC-MS/MS) using an EASY-nanoLC 1200 system with a 1 h analysis and an Orbitrap Fusion™ Lumos™ Tribrid™ Mass Spectrometer (Thermo Fisher Scientific). […]

Q: What does the source list for `CC[C@H](C)[C@@H]1NC(=O)[C@H](Cc2c[nH]c3ccccc23)NC(=O)[C@@H]2CCCN2C(=O)[C@H](C)NC(=O)[C@H](C(C)C)NC(=O)[C@H](CCC(N)=O)NC(=O)[C@H](Cc2ccccc2)NC(=O)[C@H](Cc2c[nH]cn2)NC(=O)[C@H]([C@@H](C)O)NC(=O)[C@H](Cc2ccc(O)cc2)NC(=O)CSC[C@@H](C(N)=O)NC(=O)[C@H](CC(C)C)NC(=O)[C@H](CO)NC(=O)[C@H](CCC(N)=O)NC1=O` [HL5] ({CH2CO}-YTHFQVAPWIQSLC-NH2; thioether N-14; C-terminus assumed)?
A: Cumulative ΔHDX of HTTQ23-HAP40 on incubation with macrocycle (HTTQ23-HAP40): no statistically significant cumulative HDX differences; Enrichment of HAP40 in macrocycle pulldowns (HAP40): not enriched
